System: MV-4-11 cells
Assay: Gene expression microarray analysis (Affymetrix PrimeView) and GSEA
Assay type: cell-based, human
Set-up: RFU PODN (11730768_x_at) / Fold change /veh PODN (11730768_x_at) / RFU LINC00158 (11744669_a_at) / Fold change /veh LINC00158 (11744669_a_at) / RFU DUSP10 (11751237_a_at) / Fold change /veh DUSP10 (11751237_a_at) / RFU ID3 (11757404_x_at) / Fold change /veh ID3 (11757404_x_at) / RFU PLEKHG5 (11737974_s_at) / Fold change /veh PLEKHG5 (11737974_s_at) / RFU LRRC4B (11730491_at) / Fold change /veh LRRC4B (11730491_at) / RFU GIMAP4 (11747438_a_at) / Fold change /veh GIMAP4 (11747438_a_at) / RFU KRT8 (11758183_x_at) / Fold change /veh KRT8 (11758183_x_at) / RFU CNN1 (11734310_a_at) / Fold change /veh CNN1 (11734310_a_at) / RFU VPS37D (11726825_at) / Fold change /veh VPS37D (11726825_at) / RFU C10orf10 (11716522_x_at) / Fold change /veh C10orf10 (11716522_x_at) / RFU KIR2DL2 /// KIR2DL4 /// KIR2DL5A /// KIR2DL5B /// KIR2DS1 /// KIR2DS2 /// KIR2DS3 /// KIR2DS4 /// KIR3DL3 /// KIR3DL3 /// KIR3DS1 (11738374_at) / Fold change /veh KIR2DL2 /// KIR2DL4 /// KIR2DL5A /// KIR2DL5B /// KIR2DS1 /// KIR2DS2 /// KIR2DS3 /// KIR2DS4 /// KIR3DL3 /// KIR3DL3 /// KIR3DS1 (11738374_at) / RFU C1QL1 (11718748_at) / Fold change /veh C1QL1 (11718748_at) / RFU TMPRSS4 (11747572_a_at) / Fold change /veh TMPRSS4 (11747572_a_at) / RFU HAMP (11756126_x_at) / Fold change /veh HAMP (11756126_x_at) / RFU RNFT2 (11725882_a_at) / Fold change /veh RNFT2 (11725882_a_at) / RFU NR4A2 (11747474_a_at) / Fold change /veh NR4A2 (11747474_a_at) / RFU ABCC12 (11746883_a_at) / Fold change /veh ABCC12 (11746883_a_at) / RFU TMEM136 (11760407_x_at) / Fold change /veh TMEM136 (11760407_x_at) / RFU CLDN22 /// WWC2 (11732394_at) / Fold change /veh CLDN22 /// WWC2 (11732394_at) / RFU HLA-DPB1 (11760878_x_at) / Fold change /veh HLA-DPB1 (11760878_x_at) / RFU SPINT1 (11716480_a_at) / Fold change /veh SPINT1 (11716480_a_at) / RFU GAP43 (11754022_s_at) / Fold change /veh GAP43 (11754022_s_at) / RFU A4GNT (11735810_at) / Fold change /veh A4GNT (11735810_at) / RFU PRB3 (11715151_x_at) / Fold change /veh PRB3 (11715151_x_at) / RFU TUBB4B (11761932_at) / Fold change /veh TUBB4B (11761932_at) / RFU CAPN14 (11732068_a_at) / Fold change /veh CAPN14 (11732068_a_at) / RFU TMCC2 (11721928_a_at) / Fold change /veh TMCC2 (11721928_a_at) / RFU IRGQ (11745062_a_at) / Fold change /veh IRGQ (11745062_a_at) / RFU FAM174B (11720279_a_at) / Fold change /veh FAM174B (11720279_a_at) / RFU TMPRSS4 (11748680_a_at) / Fold change /veh TMPRSS4 (11748680_a_at) / RFU FAM212B (11763350_a_at) / Fold change /veh FAM212B (11763350_a_at) / RFU PLEKHG5 (11743358_a_at) / Fold change /veh PLEKHG5 (11743358_a_at) / RFU ZSCAN30 (11745921_a_at) / Fold change /veh ZSCAN30 (11745921_a_at) / RFU CMKLR1 (11741424_a_at) / Fold change /veh CMKLR1 (11741424_a_at) / RFU LOC101060620 /// MAPK8IP1 (11723275_at) / Fold change /veh LOC101060620 /// MAPK8IP1 (11723275_at) / RFU SPTSSB (11747773_x_at) / Fold change /veh SPTSSB (11747773_x_at) / RFU PRSS12 (11739890_at) / Fold change /veh PRSS12 (11739890_at) / RFU BIN1 (11741810_x_at) / Fold change /veh BIN1 (11741810_x_at) / RFU WNT11 (11732464_a_at) / Fold change /veh WNT11 (11732464_a_at) / RFU C10orf10 (11716521_a_at) / Fold change /veh C10orf10 (11716521_a_at) / RFU C5orf56 (11738089_at) / Fold change /veh C5orf56 (11738089_at) / RFU CYB561 (11721691_x_at) / Fold change /veh CYB561 (11721691_x_at) / RFU ANKRD19P (11752326_a_at) / Fold change /veh ANKRD19P (11752326_a_at) / RFU OR2T12 /// OR2T33 /// OR2T8 (11738714_s_at) / Fold change /veh OR2T12 /// OR2T33 /// OR2T8 (11738714_s_at) / RFU VCAN (11748164_a_at) / Fold change /veh VCAN (11748164_a_at) / RFU JSRP1 (11732532_at) / Fold change /veh JSRP1 (11732532_at) / RFU KRTAP10-11 (11738290_x_at) / Fold change /veh KRTAP10-11 (11738290_x_at) / RFU MYO3A (11730013_a_at) / Fold change /veh MYO3A (11730013_a_at) / RFU EBF3 (11725865_a_at) / Fold change /veh EBF3 (11725865_a_at) / RFU CAMK2N1 (11719241_x_at) / Fold change /veh CAMK2N1 (11719241_x_at) / RFU C5orf56 (11738088_a_at) / Fold change /veh C5orf56 (11738088_a_at) / RFU OLFML3 (11715873_a_at) / Fold change /veh OLFML3 (11715873_a_at) / RFU LOC100653217 /// NTM (11731650_a_at) / Fold change /veh LOC100653217 /// NTM (11731650_a_at) / RFU MAPK11 (11762145_a_at) / Fold change /veh MAPK11 (11762145_a_at) / RFU FIZ1 (11724087_x_at) / Fold change /veh FIZ1 (11724087_x_at) / RFU OASL (11726364_x_at) / Fold change /veh OASL (11726364_x_at) / RFU SOX15 (11748057_x_at) / Fold change /veh SOX15 (11748057_x_at) / RFU CD79A (11719716_a_at) / Fold change /veh CD79A (11719716_a_at) / RFU HIST1H1D (11736915_at) / Fold change /veh HIST1H1D (11736915_at) / RFU CASKIN2 (11723855_a_at) / Fold change /veh CASKIN2 (11723855_a_at) / RFU LOC730098 (11760151_x_at) / Fold change /veh LOC730098 (11760151_x_at) / RFU OR4N2 (11742367_at) / Fold change /veh OR4N2 (11742367_at) / RFU PRRT2 (11749266_a_at) / Fold change /veh PRRT2 (11749266_a_at) / RFU SNX32 (11753110_a_at) / Fold change /veh SNX32 (11753110_a_at) / RFU CDHR5 (11726645_a_at) / Fold change /veh CDHR5 (11726645_a_at) / RFU RCAN1 (11760418_a_at) / Fold change /veh RCAN1 (11760418_a_at) / RFU FAM167A (11723789_a_at) / Fold change /veh FAM167A (11723789_a_at) / RFU FAM26E (11764081_at) / Fold change /veh FAM26E (11764081_at) / RFU ISYNA1 (11749810_s_at) / Fold change /veh ISYNA1 (11749810_s_at) / RFU ACY1 (11761880_at) / Fold change /veh ACY1 (11761880_at) / RFU 11764098_at / Fold change /veh 11764098_at / RFU SAMD14 (11745864_x_at) / Fold change /veh SAMD14 (11745864_x_at) / RFU NPB (11741838_a_at) / Fold change /veh NPB (11741838_a_at) / RFU TMPRSS6 (11731388_a_at) / Fold change /veh TMPRSS6 (11731388_a_at) / RFU KRTAP10-2 (11738614_at) / Fold change /veh KRTAP10-2 (11738614_at) / RFU ARHGAP8 /// PRR5-ARHGAP8 (11727945_x_at) / Fold change /veh ARHGAP8 /// PRR5-ARHGAP8 (11727945_x_at) / RFU KRTAP5-7 /// NADSYN1 (11734609_at) / Fold change /veh KRTAP5-7 /// NADSYN1 (11734609_at) / RFU RASL12 (11751679_a_at) / Fold change /veh RASL12 (11751679_a_at) / RFU CDKN2B (11736163_a_at) / Fold change /veh CDKN2B (11736163_a_at) / RFU PRF1 (11729649_at) / Fold change /veh PRF1 (11729649_at) / RFU, ZNF638 /// ZNF638-IT1 / Fold change vs veh, ZNF638 /// ZNF638-IT1 / RFU, PANK3 / Fold change vs veh, PANK3 / RFU, SH3YL1 / Fold change vs veh, SH3YL1 / RFU, ZEB2 / Fold change vs veh, ZEB2 / RFU, NRIP1 / Fold change vs veh, NRIP1 / RFU, PTTG1IP / Fold change vs veh, PTTG1IP / RFU, CAPN2 / Fold change vs veh, CAPN2 / RFU, MED14 / Fold change vs veh, MED14 / RFU, SNORA58 / Fold change vs veh, SNORA58 / RFU, C1orf63 / Fold change vs veh, C1orf63 / RFU, LRRFIP1 / Fold change vs veh, LRRFIP1 / RFU, NDUFAF7 / Fold change vs veh, NDUFAF7 / RFU, SLC12A2 / Fold change vs veh, SLC12A2 / RFU, IBTK / Fold change vs veh, IBTK / RFU, ESF1 / Fold change vs veh, ESF1 / Fold change vs veh, TMEM50B / RFU, TAOK1 / Fold change vs veh, TAOK1 / RFU, ACBD3 / Fold change vs veh, ACBD3 / RFU, TMA16 / Fold change vs veh, TMA16 / RFU, RWDD3 / Fold change vs veh, RWDD3 / RFU, BCAT1 / Fold change vs veh, BCAT1 / RFU, EDEM3 / Fold change vs veh, EDEM3 / RFU, TMEM33 / Fold change vs veh, TMEM33 / RFU, WDR75 / Fold change vs veh, WDR75 / RFU, AHCTF1 / Fold change vs veh, AHCTF1 / RFU, TFRC / Fold change vs veh, TFRC / RFU, ZDHHC17 / Fold change vs veh, ZDHHC17 / RFU, NOM1 / Fold change vs veh, NOM1 / RFU, ARL8B / Fold change vs veh, ARL8B / RFU, ZBTB11 / Fold change vs veh, ZBTB11 / RFU, TAMM41 / Fold change vs veh, TAMM41 / RFU, KIAA1704 /// LOC100996395 / Fold change vs veh, KIAA1704 /// LOC100996395 / RFU, ING1 / Fold change vs veh, ING1 / RFU, TRMT61B / Fold change vs veh, TRMT61B / RFU, FUBP3 / Fold change vs veh, FUBP3 / RFU, TP53 / Fold change vs veh, TP53 / RFU, TNKS2 / Fold change vs veh, TNKS2 / RFU, ZFP14 / Fold change vs veh, ZFP14 / RFU, ACTR2 / Fold change vs veh, ACTR2 / RFU, PPP3R1 / Fold change vs veh, PPP3R1 / RFU, PIK3R1 / Fold change vs veh, PIK3R1 / RFU, HNRNPA1 / Fold change vs veh, HNRNPA1 / RFU, RNF170 / Fold change vs veh, RNF170 / RFU, ZNF28 / Fold change vs veh, ZNF28 / RFU, RNGTT / Fold change vs veh, RNGTT / RFU, OGT / Fold change vs veh, OGT / RFU, BRD1 / Fold change vs veh, BRD1 / RFU, MARS / Fold change vs veh, MARS / RFU, ZNF655 / Fold change vs veh, ZNF655 / RFU, FAHD1 / Fold change vs veh, FAHD1 / RFU, BDP1 / Fold change vs veh, BDP1 / RFU, LRRCC1 / Fold change vs veh, LRRCC1 / RFU, ARID1A / Fold change vs veh, ARID1A / RFU, ZNF146 / Fold change vs veh, ZNF146 / RFU, ZNF330 / Fold change vs veh, ZNF330 / RFU, GPN3 / Fold change vs veh, GPN3 / RFU, C9orf123 / Fold change vs veh, C9orf123 / RFU, N4BP2L2 / Fold change vs veh, N4BP2L2 / RFU, ARFIP1 / Fold change vs veh, ARFIP1 / RFU, FAM179B / Fold change vs veh, FAM179B / RFU, BCL10 / Fold change vs veh, BCL10 / RFU, UHRF1BP1L / Fold change vs veh, UHRF1BP1L / RFU, BET1 / Fold change vs veh, BET1 / RFU, CNOT2 / Fold change vs veh, CNOT2 / RFU, ZNF268 / Fold change vs veh, ZNF268 / Fold change vs veh, ZNF507 / RFU, DGCR2 / Fold change vs veh, DGCR2 / RFU, WDSUB1 / Fold change vs veh, WDSUB1 / Fold change vs veh, HSP90B1 /// MIR3652 / RFU, ADSS / Fold change vs veh, ADSS / RFU, GK / Fold change vs veh, GK / RFU, ZNF148 / Fold change vs veh, ZNF148 / RFU, TAF9 / Fold change vs veh, TAF9 / RFU, SLC1A5 / Fold change vs veh, SLC1A5 / RFU, SLMO2 / Fold change vs veh, SLMO2 / RFU, ABCC4 / Fold change vs veh, ABCC4 / RFU, LOC101060439 /// RAP1B / Fold change vs veh, LOC101060439 /// RAP1B / RFU, RFX7 / Fold change vs veh, RFX7 / RFU, GTPBP10 / Fold change vs veh, GTPBP10 / RFU, CNEP1R1 / Fold change vs veh, CNEP1R1 / RFU, BIVM-ERCC5 /// ERCC5 / Fold change vs veh, BIVM-ERCC5 /// ERCC5 / RFU, ILF3 / Fold change vs veh, ILF3 / RFU 11762660_at / Fold change /veh 11762660_at / RFU VCAN (11757783_s_at) / Fold change /veh VCAN (11757783_s_at) / RFU DDX43 (11728927_at) / Fold change /veh DDX43 (11728927_at) / RFU KRT8 (11758188_x_at) / Fold change /veh KRT8 (11758188_x_at) / RFU NKD1 (11759106_at) / Fold change /veh NKD1 (11759106_at) / RFU SRD5A1 (11742802_a_at) / Fold change /veh SRD5A1 (11742802_a_at) / RFU TPSAB1 /// TPSB2 (11721975_s_at) / Fold change /veh TPSAB1 /// TPSB2 (11721975_s_at) / RFU GSTM3 (11746129_a_at) / Fold change /veh GSTM3 (11746129_a_at) / RFU IL23R (11737362_x_at) / Fold change /veh IL23R (11737362_x_at) / RFU TMEM51 (11727254_a_at) / Fold change /veh TMEM51 (11727254_a_at) / RFU PIWIL2 (11732686_x_at) / Fold change /veh PIWIL2 (11732686_x_at) / RFU ORM1 (11744905_x_at) / Fold change /veh ORM1 (11744905_x_at) / RFU CCDC152 (11743942_at) / Fold change /veh CCDC152 (11743942_at) / RFU ECM1 (11717891_a_at) / Fold change /veh ECM1 (11717891_a_at) / RFU IL23R (11748794_a_at) / Fold change /veh IL23R (11748794_a_at) / RFU TNFAIP8L3 (11732012_x_at) / Fold change /veh TNFAIP8L3 (11732012_x_at) / RFU MBOAT4 (11741988_at) / Fold change /veh MBOAT4 (11741988_at) / RFU 11764193_at / Fold change /veh 11764193_at / RFU TMEM53 (11763286_at) / Fold change /veh TMEM53 (11763286_at) / RFU MAGEB2 (11727129_at) / Fold change /veh MAGEB2 (11727129_at) / RFU TMEM200A (11744735_a_at) / Fold change /veh TMEM200A (11744735_a_at) / RFU CCDC152 (11751479_a_at) / Fold change /veh CCDC152 (11751479_a_at) / RFU FAM211A (11726209_a_at) / Fold change /veh FAM211A (11726209_a_at) / RFU RGS16 (11746705_a_at) / Fold change /veh RGS16 (11746705_a_at) / RFU VCAN (11755009_s_at) / Fold change /veh VCAN (11755009_s_at) / RFU RHOB (11743442_s_at) / Fold change /veh RHOB (11743442_s_at) / RFU RGS16 (11720943_a_at) / Fold change /veh RGS16 (11720943_a_at) / RFU RGS16 (11720944_at) / Fold change /veh RGS16 (11720944_at) / RFU, VPS4B / Fold change vs veh, VPS4B / RFU, CREB1 / Fold change vs veh, CREB1 / RFU, DNAJC13 / Fold change vs veh, DNAJC13 / RFU, GNAQ / Fold change vs veh, GNAQ / RFU, CDK5R1 / Fold change vs veh, CDK5R1 / RFU, ZRANB3 / Fold change vs veh, ZRANB3 / RFU, CUL4A / Fold change vs veh, CUL4A / RFU, CCNY / Fold change vs veh, CCNY / RFU, UFL1 / Fold change vs veh, UFL1 / RFU, COG3 / Fold change vs veh, COG3 / RFU, DIAPH2 / Fold change vs veh, DIAPH2 / RFU, SKA2 / Fold change vs veh, SKA2 / RFU, AFF3 / Fold change vs veh, AFF3 / RFU, LMF1 / Fold change vs veh, LMF1 / RFU, IPO11 / Fold change vs veh, IPO11 / RFU, DFFB / Fold change vs veh, DFFB / RFU, FOXP1 / Fold change vs veh, FOXP1 / RFU, CARD8 / Fold change vs veh, CARD8 / RFU, STRN3 / Fold change vs veh, STRN3 / RFU, ADK / Fold change vs veh, ADK / RFU, RASSF2 / Fold change vs veh, RASSF2 / RFU, WIPF1 / Fold change vs veh, WIPF1 / RFU, LARP1B / Fold change vs veh, LARP1B / RFU, RASA1 / Fold change vs veh, RASA1 / RFU, RB1 / Fold change vs veh, RB1 / RFU, PPFIA1 / Fold change vs veh, PPFIA1 / RFU, MAT2A / Fold change vs veh, MAT2A / RFU, CCT5 / Fold change vs veh, CCT5 / RFU, WDR92 / Fold change vs veh, WDR92 / RFU, CUX1 / Fold change vs veh, CUX1 / RFU, TTC7A / Fold change vs veh, TTC7A / RFU, TMEM135 / Fold change vs veh, TMEM135 / RFU, DEPTOR / Fold change vs veh, DEPTOR / RFU, CPM / Fold change vs veh, CPM / RFU, DNAJB6 / Fold change vs veh, DNAJB6 / RFU, CACNA2D3 / Fold change vs veh, CACNA2D3 / RFU, DTX4 / Fold change vs veh, DTX4 / RFU, TFCP2 / Fold change vs veh, TFCP2 / RFU, GMCL1 /// GMCL1P1 / Fold change vs veh, GMCL1 /// GMCL1P1 / RFU, AEBP2 / Fold change vs veh, AEBP2 / RFU, SNHG1 /// SNORD22 /// SNORD25 /// SNORD26 /// SNORD27 /// SNORD28 /// SNORD29 /// SNORD31 / Fold change vs veh, SNHG1 /// SNORD22 /// SNORD25 /// SNORD26 /// SNORD27 /// SNORD28 /// SNORD29 /// SNORD31 / Fold change (Aza/veh), C12orf56 (ProbeSet 11735607_a_at) / Fold change (ACY-1035/veh), C12orf56 (ProbeSet 11735607_a_at) / Fold change (Aza/veh), FGFR1OP (ProbeSet 11751329_s_at) / Fold change (ACY-1035/veh), FGFR1OP (ProbeSet 11751329_s_at) / Fold change (Aza/veh), VPS36 (ProbeSet 11739960_a_at) / Fold change (ACY-1035/veh), VPS36 (ProbeSet 11739960_a_at) / RFU SYPL1 (11715823_x_at) / Fold change /veh SYPL1 (11715823_x_at) / RFU IGFBP7 (11715501_s_at) / Fold change /veh IGFBP7 (11715501_s_at) / RFU REEP3 (11722064_at) / Fold change /veh REEP3 (11722064_at) / RFU IGLL1 (11728026_x_at) / Fold change /veh IGLL1 (11728026_x_at): dose or concentration left out as unconfirmed
Conditions: MV-4-11 cells, 48 hours

Nc1ccc(-c2cccs2)cc1NC(=O)c1ccc2c(c1)cc(C1CC1)n2CCN1CCOCC1 [ACY-1035]
Fold change /veh IL23R (11748794_a_at): 0.98

Source: PMC5218480 (PLoS ONE, 2017)
